Reference: the NIST ThermoML archive (doi:10.1016/j.jct.2017.01.007)
Values joined by “and” are separate entries in the source; they are usually repeats but may differ in a detail not shown here. Identical values can stand only once. ± gives the expanded uncertainty stated by the source.

Settings: Pendant drop shape

- surface tension liquid-gas (283.2 K): 74.8 ± 2.3 mN/m and 74.83 ± 2.1 mN/m
- surface tension liquid-gas (288.2 K): 73.65 ± 2.3 mN/m and 73.67 ± 2.1 mN/m
- surface tension liquid-gas (293.2 K): 73.07 ± 2.1 mN/m and 73.03 ± 2.1 mN/m
- surface tension liquid-gas (298.2 K): 72.21 ± 2.2 mN/m and 72.13 ± 2.1 mN/m
SMILES: O [water]
